Consider six molecules from ChEMBL document CHEMBL2176876, “Discovery of potent and selective pyrazolopyrimidine janus kinase 2 inhibitors” (J Med Chem, 2012).

Data set [1] can be described thus: Oral bioavailability in Sprague-Dawley rat at 5 mg/kg. In kind it is ADME, organism-based. The following applies: in vivo.
The nature of data set [2]: Permeability from apical to basolateral side in MDCK cells. In kind it is ADME, cell-based, Canis lupus familiaris. The note with it: dog, read-out: permeability.
Data set [3] in a line: Volume of distribution at steady state in Sprague-Dawley rat at 0.1 to 1 mg/kg, iv. In kind it is ADME, organism-based. The arrangement: dose 0.1-1 mg/kg, route intravenous. The following applies: in vivo, read-out: Vdss.
The nature of data set [4]: Oral bioavailability in Balb/C mouse at 5 mg/kg. The class given is ADME, organism-based. The note with it: in vivo.
Data set [5] is described as follows: Volume of distribution at steady state in Balb/C mouse at 0.5 mg/kg, iv. In kind it is ADME, organism-based. Set-up: dose 0.5 mg/kg, route intravenous. The following applies: in vivo, read-out: Vdss.

The structures appear in SMILES notation.

Consider `CNc1ccn2ncc(C(=O)Nc3cc(C)nn3-c3cccc(Cl)c3)c2n1`, for which, in data set [1], the bioavailability worked out at 30%. Moreover, the Papp A→B in data set [2] worked out at 15.1 ×10⁻⁶ cm/s. Moreover, the Vd in data set [3] turned out to be 0.843 L/kg.

As for `Cc1cc(NC(=O)c2cnn3ccc(N)nc23)n(-c2cccc(Cl)c2)n1`, the results for the bioavailability in data set [4] and in data set [1] were 8.6% and 1%, respectively. Besides, the Papp A→B in data set [2] came out at 8.4 ×10⁻⁶ cm/s. Moreover, the Vd stood at 0.185 L/kg in data set [3] and 0.27 L/kg in data set [5].

Regarding `Cn1cc(NC(=O)c2cnn3ccc(N)nc23)c(-c2cc(Cl)ccc2Cl)n1`, the bioavailability in data set [1] came out at 63%. For the same molecule, in data set [2], the Papp A→B was determined as 10.5 ×10⁻⁶ cm/s. In data set [3], the Vd is 1.08 L/kg.

For `Cn1cc(NC(=O)c2cnn3ccc(N)nc23)c(-c2cccc(Cl)c2)n1`, the bioavailability in data set [1] is 7%. Further, the Vd in data set [3] is 0.355 L/kg.

With `Cc1cc(NC(=O)c2cnn3cccnc23)n(-c2cccc(Cl)c2)n1`, the bioavailability in data set [1] is 44%. Also, the Papp A→B in data set [2] was 10.5 ×10⁻⁶ cm/s. Also, the Vd in data set [3] is 0.293 L/kg.

Turning to `Cn1cc(NC(=O)c2cnn3cccnc23)c(-c2cccc(Cl)c2)n1`, in data set [1], the bioavailability amounted to 124%. In data set [3], the Vd is 0.349 L/kg.
